Assay results: patent US20250263390A1, “NOVEL SUBSTITUTED 6,7-DIHYDRO-5H-BENZO[7]ANNULENE COMPOUNDS AND THEIR DERIVATIVES, PROCESSES FOR THEIR PREPARATION AND THERAPEUTIC USES THEREOF” (SANOFI, priority 2022, published 2025)

Each molecule was assayed against T1, ERα (Homo sapiens, UniProt P03372) (assay: Estrogen receptor degradation activity: breast cancer cell ERα in cell western assay). Conditions: MCF7 cells, 4 hours, relative to fulvestrant 0.1 μM positive control.
T1 construct: host or cells: MCF7
T1 sequence (P03372 1-595): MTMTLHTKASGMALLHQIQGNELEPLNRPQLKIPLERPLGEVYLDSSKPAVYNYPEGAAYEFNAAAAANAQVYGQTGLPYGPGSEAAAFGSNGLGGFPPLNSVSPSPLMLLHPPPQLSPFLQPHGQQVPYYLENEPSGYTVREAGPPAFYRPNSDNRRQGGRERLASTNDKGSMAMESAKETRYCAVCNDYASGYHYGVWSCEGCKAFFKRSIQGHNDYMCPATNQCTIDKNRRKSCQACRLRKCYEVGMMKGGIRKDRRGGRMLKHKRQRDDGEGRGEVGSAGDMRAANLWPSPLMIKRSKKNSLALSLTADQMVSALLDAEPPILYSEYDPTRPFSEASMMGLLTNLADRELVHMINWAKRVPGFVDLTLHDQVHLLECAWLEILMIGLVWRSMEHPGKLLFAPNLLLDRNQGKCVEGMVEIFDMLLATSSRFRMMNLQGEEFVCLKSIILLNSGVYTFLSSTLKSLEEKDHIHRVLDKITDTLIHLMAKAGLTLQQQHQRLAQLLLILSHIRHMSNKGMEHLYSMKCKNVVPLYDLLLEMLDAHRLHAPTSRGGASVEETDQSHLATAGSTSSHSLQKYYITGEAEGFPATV
Type: cell-based
Procedure, shortened: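 MCF7 cells in phenol red-free medium with 5% charcoal-stripped FBS, 4 h exposure to 9-point 1:5 dilutions (final 0.3–0.0000018 μM). ERα immunostained in fixed cells and normalised to DNA dye; % decrease scaled between DMSO and 0.1 μM fulvestrant, IC50 reported in nM.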

**Q.** For O=C(O)C(F)(F)F.O=C(O)c1ccc2c(c1)CCCC(CCCO)=C2c1ccc(CC2CN(CCCF)C2)cc1 [Compound 15, 9-(4-((1-(3-fluoropropyl)azetidin-3-yl)methyl)phenyl)-8-(3-hydroxypropyl)-6,7-dihydro-5H-benzo[7]annulene-3-carboxylic acid, 2,2,2-trifluoroacetic acid], which “% Degradation At 0.3 μM” value is on record?
**A.** 100%

**Q.** Cc1ccc(C2=C(c3ccc(CC4CN(CCCF)C4)cc3)c3ccc(C(=O)O)cc3CCC2)c(C)c1F [Compound 57, 8-(3-fluoro-2,4-dimethylphenyl)-9-(4-((1-(3-fluoropropyl)azetidin-3-yl)methyl)phenyl)-6,7-dihydro-5H-benzo[7]annulene-3-carboxylic acid] was tested. Which “% Degradation At 0.3 μM” value did it give?
**A.** 92%

**Q.** Which “% Degradation At 0.3 μM” value does the source give for COc1cccc(C)c1C1=C(c2ccc(CC3CN(CCCF)C3)cc2)c2ccc(C(=O)O)cc2CCC1.Cl [Compound 48, 9-(4-((1-(3-fluoropropyl)azetidin-3-yl)methyl)phenyl)-8-(2-methoxy-6-methylphenyl)-6,7-dihydro-5H-benzo[7]annulene-3-carboxylic acid, hydrochloride] here?
**A.** 92%

**Q.** COc1cc(C)c(C2=C(c3ccc(CC4CN(CCCF)C4)cc3)c3ccc(C(=O)O)cc3CCC2)c(C)c1 [Compound 55, 9-(4-((1-(3-fluoropropyl)azetidin-3-yl)methyl)phenyl)-8-(4-methoxy-2,6-dimethylphenyl)-6,7-dihydro-5H-benzo[7]annulene-3-carboxylic acid] was tested. Which “% Degradation At 0.3 μM” value did it give?
**A.** 95%

**Q.** Which “% Degradation At 0.3 μM” value does the source give for O=C(O)c1ccc2c(c1)CCCC(c1ccc(F)c(O)c1F)=C2c1ccc(CC2CN(CCCF)C2)cc1 [Compound 47, 8-(2,4-difluoro-3-hydroxyphenyl)-9-(4-((1-(3-fluoropropyl)azetidin-3-yl)methyl)phenyl)-6,7-dihydro-5H-benzo[7]annulene-3-carboxylic acid] here?
**A.** 100%

**Q.** How did the “% Degradation At 0.3 μM” value turn out when O=C(O)c1ccc2c(c1)CCCC(c1cccc(C(F)(F)F)c1C(F)(F)F)=C2c1ccc(CC2CN(CCCF)C2)cc1 [Compound 59, 8-(2,3-bis(trifluoromethyl)phenyl)-9-(4-((1-(3-fluoropropyl)azetidin-3-yl)methyl)phenyl)-6,7-dihydro-5H-benzo[7]annulene-3-carboxylic acid] was run?
**A.** 95%

**Q.** How did the “% Degradation At 0.3 μM” value turn out when O=C(O)c1ccc2c(c1)CCCC(c1c(Cl)cccc1OC(F)(F)F)=C2c1ccc(CC2CN(CCCF)C2)cc1 [Compound 50, 8-(2-chloro-6-(trifluoromethoxy)phenyl)-9-(4-((1-(3-fluoropropyl)azetidin-3-yl)methyl)phenyl)-6,7-dihydro-5H-benzo[7]annulene-3-carboxylic acid] was run?
**A.** 91%

**Q.** O=C(O)c1ccc2c(c1)CCCC(c1cccc3c1CCCO3)=C2c1ccc(CC2CN(CCCF)C2)cc1 [Compound 12, 8-(chroman-5-yl)-9-(4-((1-(3-fluoropropyl)azetidin-3-yl)methyl)phenyl)-6,7-dihydro-5H-benzo[7]annulene-3-carboxylic acid] was tested. Which “% Degradation At 0.3 μM” value did it give?
**A.** 86%

**Q.** With Cc1cc(C)c(C2=C(c3ccc(CC4CN(CCCF)C4)cc3)c3ccc(C(=O)O)cc3CCC2)c(Cl)c1 [Compound 53, 8-(2-chloro-4,6-dimethylphenyl)-9-(4-((1-(3-fluoropropyl)azetidin-3-yl)methyl)phenyl)-6,7-dihydro-5H-benzo[7]annulene-3-carboxylic acid] as the molecule, how does the “% Degradation At 0.3 μM” value read?
**A.** 88%

**Q.** With COc1cccc(C2=C(c3ccc(CC4CN(CCCF)C4)cc3)c3ccc(C(=O)O)cc3CCC2)c1C [Compound 7, 9-(4-((1-(3-fluoropropyl)azetidin-3-yl)methyl)phenyl)-8-(3-methoxy-2-methylphenyl)-6,7-dihydro-5H-benzo[7]annulene-3-carboxylic acid] as the molecule, how does the “% Degradation At 0.3 μM” value read?
**A.** 93%

**Q.** Which “% Degradation At 0.3 μM” value does the source give for COc1cccc(F)c1C1=C(c2ccc(CC3CN(CCCF)C3)cc2)c2ccc(C(=O)O)cc2CCC1 [Compound 45, 8-(2-fluoro-6-methoxyphenyl)-9-(4-((1-(3-fluoropropyl)azetidin-3-yl)methyl)phenyl)-6,7-dihydro-5H-benzo[7]annulene-3-carboxylic acid] here?
**A.** 92%

**Q.** Which “% Degradation At 0.3 μM” value does the source give for Cc1c(OC(F)F)cccc1C1=C(c2ccc(CC3CN(CCCF)C3)cc2)c2ccc(C(=O)O)cc2CCC1 [Compound 14, 8-(3-(difluoromethoxy)-2-methylphenyl)-9-(4-((1-(3-fluoropropyl)azetidin-3-yl)methyl)phenyl)-6,7-dihydro-5H-benzo[7]annulene-3-carboxylic acid] here?
**A.** 93%

**Q.** Which “% Degradation At 0.3 μM” value does the source give for CCc1c(C2=C(c3ccc(CC4CN(CCCF)C4)cc3)c3ccc(C(=O)O)cc3CCC2)cccc1C(F)(F)F [Compound 67, 8-(2-ethyl-3-(trifluoromethyl)phenyl)-9-(4-((1-(3-fluoropropyl)azetidin-3-yl)methyl)phenyl)-6,7-dihydro-5H-benzo[7]annulene-3-carboxylic acid] here?
**A.** 93%

**Q.** With Cc1cc(C2=C(c3ccc(CC4CN(CCCF)C4)cc3)c3ccc(C(=O)O)cc3CCC2)cc(C(F)(F)F)c1.Cl [Compound 34, 9-(4-((1-(3-fluoropropyl)azetidin-3-yl)methyl)phenyl)-8-(3-methyl-5-(trifluoromethyl)phenyl)-6,7-dihydro-5H-benzo[7]annulene-3-carboxylic acid, hydrochloride] as the molecule, how does the “% Degradation At 0.3 μM” value read?
**A.** 90%

**Q.** Which “% Degradation At 0.3 μM” value does the source give for COc1ccc(C(F)F)c(C2=C(c3ccc(CC4CN(CCCF)C4)cc3)c3ccc(C(=O)O)cc3CCC2)c1.Cl [Compound 60, 8-(2-(difluoromethyl)-5-methoxyphenyl)-9-(4-((1-(3-fluoropropyl)azetidin-3-yl)methyl)phenyl)-6,7-dihydro-5H-benzo[7]annulene-3-carboxylic acid, hydrochloride] here?
**A.** 95%
